Source: patent US9422545B2 (priority 2013, dated 2016)

Assays:
1E4 = format: binding, mouse
virulent C. burnetii = tested on: virulent C. burnetii; design: species or system Coxiella burnetii

| Substance | inhibition index (A490 without PI-A490 with PI/A490 without PI) (1E4) | number of dead bacteria (virulent C. burnetii) |
| --- | --- | --- |
| SPPWHKHELHRK [m1E44] | highest inhibition index | – |
| EDTA | – | significantly higher numbers of dead bacteria |
